From ChEMBL document CHEMBL1157700, “Synthesis of 3-[(N-carboalkoxy)ethylamino]-indazole-dione derivatives and their biological activities on human liver carbonyl reductase” (Bioorg Med Chem, 2010) come the findings set out here.

The test system of this test is A549. Nature of the test: Potentiation of daunorubicin-induced cytotoxicity against human A549 cells. It counts as functional.

Take `CNc1ncnc2c1c(-c1cccc(O)c1)cn2C(C)C`: the Activity was 25%.
